Measured values: patent US9193731B2, “Antimicrobial compounds and methods of making and using the same” (Melinta Therapeutics, Inc., priority 2009, dated 2015)
Counter-ions that a name gives are not always drawn.

system: Escherichia coli strain ATCC25922; experiment: standard microdilution assay to determine minimum inhibitory concentrations (MICs); format: cell-based; details: Escherichia coli strain ATCC25922, microdilution
How it was run: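 Broth microdilution MIC against E. coli ATCC25922, following CLSI protocols, typically in a 100 microliter final volume. Results reported as +/− relative to a 16 micrograms/ml cutoff.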

| Compound | E. coli ATCC25922 MIC |
| --- | --- |
| N=C(N)NCCCNCc1ccc(-n2cc3cc(-c4ccc(S(=O)(=O)N(Cc5cc(Cl)cc(C(F)(F)F)c5)C5CCNCC5)cc4)[nH]c3nc2=O)cc1 [Compound 922] | + (a “+” indicates that the compound has an MIC value of 16 micrograms/ml or less) |
| N=C(N)NCCCNCc1ccc(-n2cc3cc(-c4cc(CCCCN)cc(S(=O)(=O)C(F)(F)F)c4)[nH]c3nc2=O)cc1 [Compound 2055a] | + (a “+” indicates that the compound has an MIC value of 16 micrograms/ml or less) |
| CC(N)CCOc1cccc(-c2cc3cn(-c4ccc(CNCCCNC(=N)N)cc4)c(=O)nc3[nH]2)c1 (stereo not shown) [Compound 1440] | + (a “+” indicates that the compound has an MIC value of 16 micrograms/ml or less) |
| N=C(N)NCCCNCc1ccc(-n2cc3cc(-c4ccc(C(=O)NC5CNC5)cc4)[nH]c3nc2=O)cc1 [Compound 1412] | + (a “+” indicates that the compound has an MIC value of 16 micrograms/ml or less) |
| CN(CCCO)Cc1cc(-c2cc3cn(-c4ccc(CNCCCNC(=N)N)cc4)c(=O)nc3[nH]2)cc(N2CCNCC2)c1 [Compound 937] | + (a “+” indicates that the compound has an MIC value of 16 micrograms/ml or less) |
| N=C(N)NCCCNCc1ccc(-n2cc3cc(-c4cccc(S(=O)(=O)N(CCC(N)=O)C5CCNCC5)c4)[nH]c3nc2=O)cc1 [Compound 1259] | + (a “+” indicates that the compound has an MIC value of 16 micrograms/ml or less) |
| N=C(N)NCCCNCc1ccc(-n2cc3cc(-c4ccc(S(=O)(=O)N(CC5CC5(F)F)C5CCNCC5)cc4)[nH]c3nc2=O)cc1 (stereo not shown) [Compound 857] | + (a “+” indicates that the compound has an MIC value of 16 micrograms/ml or less) |
| NCCCNC(=O)c1ccc(-n2cc3cc(-c4ccc(S(=O)(=O)NC5CCNCC5)cc4)[nH]c3nc2=O)cc1OCC1CCNCC1 [Compound 1241] | − (a “−” indicates that the compound has an MIC value greater than 16 micrograms/ml) |
| CC(=O)NCCN(C1CCNCC1)S(=O)(=O)c1cccc(-c2cc3cn(-c4ccc(CNCCCN=C(N)N)cc4)c(=O)nc3[nH]2)c1 [Compound 1243] | + (a “+” indicates that the compound has an MIC value of 16 micrograms/ml or less) |
| Cc1cc(C)n2nc(CCCN(C3CCNCC3)S(=O)(=O)c3ccc(-c4cc5cn(-c6ccc(CNCCCNC(=N)N)cc6)c(=O)nc5[nH]4)cc3)nc2n1 [Compound 986] | − (a “−” indicates that the compound has an MIC value greater than 16 micrograms/ml) |
| N=C(N)NCCCNCc1ccc(-n2cc3cc(-c4cc(CO)cc(OCC(F)CN)c4)[nH]c3nc2=O)cc1 (stereo not shown) [Compound 2050a] | + (a “+” indicates that the compound has an MIC value of 16 micrograms/ml or less) |
| N=C(N)NCCCNC(=O)c1ccc(-n2cc3cc(-c4ccc(S(=O)(=O)N(Cc5ccc(Cl)c(Cl)c5)C5CCNCC5)cc4)[nH]c3nc2=O)cc1 [Compound 995] | + (a “+” indicates that the compound has an MIC value of 16 micrograms/ml or less) |
| N=C(N)NCCCNCc1ccc(-n2cc3cc(-c4cc(C(=O)NCCc5cccc(F)c5)cc(N5CCNCC5)c4)[nH]c3nc2=O)cc1 [Compound 1068] | + (a “+” indicates that the compound has an MIC value of 16 micrograms/ml or less) |
| COc1ccc(CN(C2CCNCC2)S(=O)(=O)c2ccc(-c3cc4cn(-c5ccc(CNCCCNC(=N)N)cc5)c(=O)nc4[nH]3)cc2)cc1[N+](=O)[O-] [Compound 787] | + (a “+” indicates that the compound has an MIC value of 16 micrograms/ml or less) |
| NCCCCOc1ccc(-c2cn3cc(-c4ccc(S(=O)(=O)N5CCNCC5)cc4)[nH]c3nc2=O)cc1 [Compound 809] | − (a “−” indicates that the compound has an MIC value greater than 16 micrograms/ml) |
| N=C(N)NCCCNCc1ccc(-n2cc3cc(-c4cc(CN5Cc6ccccc6C5)cc(N5CCNCC5)c4)[nH]c3nc2=O)cc1 [Compound 1050] | + (a “+” indicates that the compound has an MIC value of 16 micrograms/ml or less) |
| N=C(N)NCCCNCc1ccc(-n2cc3cc(-c4cc(CN5CCS(=O)(=O)CC5)cc(N5CCNCC5)c4)[nH]c3nc2=O)cc1 [Compound 915] | + (a “+” indicates that the compound has an MIC value of 16 micrograms/ml or less) |
| NCCCNCc1ccc(-n2cc3cc(-c4cc(C(=O)N5CCC(C(N)=O)CC5)cc(N5CCNCC5)c4)[nH]c3nc2=O)cc1 [Compound 910] | − (a “−” indicates that the compound has an MIC value greater than 16 micrograms/ml) |
| CS(=O)(=O)Cc1cc(CCCCN)cc(-c2cc3cn(-c4ccc(CNCCCNC(=N)N)cc4)c(=O)nc3[nH]2)c1 [Compound 2088a] | + (a “+” indicates that the compound has an MIC value of 16 micrograms/ml or less) |
| N=C(N)NCCCNCc1ccc(-n2cc3cc(-c4ccc(S(=O)(=O)N(CCCc5cc(-c6ccccc6)n[nH]5)C5CCNCC5)cc4)[nH]c3nc2=O)cc1 [Compound 1175] | + (a “+” indicates that the compound has an MIC value of 16 micrograms/ml or less) |
| N=C(N)NCCNCc1ccc(-n2cc3cc(-c4ccc(S(=O)(=O)NC5CCNCC5)cc4)[nH]c3nc2=O)cc1 [Compound 1104] | + (a “+” indicates that the compound has an MIC value of 16 micrograms/ml or less) |
| NC(=O)c1ccc(-n2cc3cc(-c4ccc(S(=O)(=O)N(CCCn5ccc(C(F)(F)F)n5)C5CCNCC5)cc4)[nH]c3nc2=O)cc1 [Compound 1116] | − (a “−” indicates that the compound has an MIC value greater than 16 micrograms/ml) |
| N=C(N)NCCCNCc1ccc(-n2cc3cc(-c4ccc(S(=O)(=O)N(Cc5ccc(Cl)c(SC(F)(F)F)c5)C5CCNCC5)cc4)[nH]c3nc2=O)cc1 [Compound 759] | + (a “+” indicates that the compound has an MIC value of 16 micrograms/ml or less) |
| N=C(N)NCCCNCc1ccc(-n2cc3cc(-c4ccc(S(=O)(=O)N(CC5CCOCC5)C5CCCNC5)cc4)[nH]c3nc2=O)cc1 (single isomer, unassigned) [Compound 844] | + (a “+” indicates that the compound has an MIC value of 16 micrograms/ml or less) |

same assay, conditions: Escherichia coli, ATCC25922, Escherichia coli strain ATCC25922, microdilution; read-out: E. coli ATCC25922 MIC

| Compound | MIC [µg/mL] |
| --- | --- |
| NCCCN(CCCN)Cc1ccc(-n2cc3cc(-c4ccc(S(=O)(=O)NC5CN6CCC5CC6)cc4)[nH]c3nc2=O)cc1 (stereo not shown) [Compound 201] | < 16 |
| CN(C)CCOc1ccccc1-c1cc2cn(-c3ccc(CN)cc3)c(=O)nc2[nH]1 [Compound 1111] | > 16 |
| NCCCNCc1ccc(-c2cn3nc(C4CC4)[nH]c3nc2=O)cc1 [Compound 646] | > 16 |
| N=C(N)NCCCNCc1ccc(-c2cn3nc(C4CC4)[nH]c3nc2=O)cc1 [Compound 661] | > 16 |

Next, values leading:

| MIC [µg/mL] | Compound |
| --- | --- |
| > 16 | NCCCNCc1ccc(-c2cn3cc(-c4ccc(S(=O)(=O)N5CCOCC5)cc4)[nH]c3nc2=O)cc1 [Compound 746] |
| > 16 | Cc1ccn(CCCN(C2CCNCC2)S(=O)(=O)c2cccc(-c3cc4cn(-c5ccc(C(N)=O)cc5)c(=O)nc4[nH]3)c2)n1 [Compound 1126] |
| > 16 | NCCCNCc1ccc(-c2cn3nc(N)[nH]c3nc2=O)cc1 [Compound 647] |
| > 16 | O=C(NC1CCNCC1)c1ccc(-c2cc3cn(-c4ccc(CNCc5c[nH]nn5)cc4)c(=O)nc3[nH]2)cc1 [Compound 240] |
| > 16 | NCCCNCc1ccc(-n2cc3cc(CCN4CCS(=O)(=O)CC4)[nH]c3nc2=O)cc1 [Compound 784] |
| < 16 | NCCCNCc1ccc(-n2cc3cc(C4C[C@@H](N)[C@@H](CO)O4)[nH]c3nc2=O)cc1 (stereo partly shown) [Compound 1246] |
| > 16 | NCCCCOc1ccc(-c2cn3cc(-c4ccc(C(=O)NC5CCNCC5)cc4)[nH]c3nc2=O)cc1 [Compound 829] |
| > 16 | NCCOc1cccc(-c2cc3cn(-c4ccc(CN)cc4)c(=O)nc3[nH]2)c1 [Compound 1144] |
| < 16 | NC(=O)/N=C(/N)NCCNCc1ccc(-n2cc3cc(-c4ccc(C(=O)NC5CCNCC5)cc4)[nH]c3nc2=O)cc1 [Compound 229] |
| > 16 | NCc1ccc(-n2cc3cc(-c4cccc(OCC(F)(F)CN)c4)[nH]c3nc2=O)cc1 [Compound 1436] |
| < 16 | NCCCN(CCCN)Cc1ccc(-n2cc3cc(-c4ccc(S(=O)(=O)N(CCN5CCOCC5)C5CCNCC5)cc4)[nH]c3nc2=O)cc1 [Compound 233] |
| > 16 | NCCCOCc1ccc(-c2cn3cc(-c4ccc(Br)cc4)[nH]c3nc2=O)cc1 [Compound 902] |
| > 16 | N=C(N)NCCCNCc1ccc(-c2cn3cc(-c4ccc(C(=O)N5CC[C@H](F)C5)cc4)[nH]c3nc2=O)cc1 [Compound 673] |
| > 16 | NCCCCN1CC=C(n2cc3cc(-c4ccc(F)cc4)[nH]c3nc2=O)CC1 [Compound 511] |
| > 16 | CNCc1ccc(-n2cc3cc(-c4ccc(S(=O)(=O)N(CCCC5CCCC5)C5CCNCC5)cc4)[nH]c3nc2=O)cc1 [Compound 947] |
| > 16 | NCCCN(CCCN)Cc1ccc(-n2cc3cc(-c4ccc(S(=O)(=O)N(CC(=O)O)C5CCNCC5)cc4)[nH]c3nc2=O)cc1 [Compound 230] |
| < 16 | N=C(N)NCCCNCc1ccc(-c2cn3cc(-c4ccc(C(=O)N5CC6CC5CN6)cc4)[nH]c3nc2=O)cc1 (stereo not shown) [Compound 745] |
| > 16 | NCCCN(CCCN)Cc1ccc(-n2cc3cc[nH]c3nc2=O)cc1 [Compound 154] |
| > 16 | N#CCCCOc1cccc(-c2cc3cn(-c4ccc(CNCCCNC(=N)N)cc4)c(=O)nc3[nH]2)c1 [Compound 1203] |
| > 16 | NCc1ccc(-n2cc3cc(-c4ccc(S(=O)(=O)N(CCCN5Cc6ccccc6C5)C5CCNCC5)cc4)[nH]c3nc2=O)cc1 [Compound 1065] |
| > 16 | NCCCNCc1ccc(-c2cn3nc(NC(=O)c4ccc(F)cc4)[nH]c3nc2=O)cc1 [Compound 709] |
| > 16 | NCCCCN1CCC(n2cc3c(nc2=O)[nH]c2ccccc23)CC1 [Compound 600] |
| > 16 | NCc1ccc(-n2cc3cc(-c4ccc(S(=O)(=O)N(CCCC5CCCO5)C5CCNCC5)cc4)[nH]c3nc2=O)cc1 (stereo not shown) [Compound 1066] |

same assay, conditions: Escherichia coli, ATCC25922, read-out: E. coli ATCC25922 MIC

| Compound | MIC [µg/mL] |
| --- | --- |
| NCCCNCc1ccc(-c2cn3c(nc2=O)[nH]c2ccccc23)cc1 [Compound 601, 3-{4-[(3-Amino-propylamino)-methyl]-phenyl}-10H-benzo[4,5]imidazo[1,2-a]pyrimidin-2-one hydrochloride salt] | > 16 |
